Measurements from the supplement of paper PMC10627819.

What was measured:
[1] = system: S. pneumoniae D39V; assay: Bliss interaction score (quartile over a dose matrix) (fitness difference); higher = more antagonism (negative = synergy)
Procedure, shortened: (§1)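 Fitness here means normalised growth, inferred for single drugs from the combination data. Growth was OD595 at entry into stationary phase, divided by the plate's robust no-drug mean and capped at 1. The Bliss score is observed minus expected fitness, with the expectation being the product, and its quartiles span technical, biological and donor/recipient replicates.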

[2] = system: S. aureus DSM 20231; assay: as above
Procedure, shortened: as §1

[3] = system: B. subtilis 168; assay: as above
Procedure, shortened: as §1

[4] = system: S. aureus Newman; assay: as above
Procedure, shortened: as §1

[5] = system: S. pneumoniae D39V; assay: fitness (endpoint OD595 vs no drug) (fraction); higher = more growth
Procedure, shortened: (§2)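 Growth medium was TSB, LB Lennox or CY, and plates were kept at 37 °C. Inoculation was at OD595 0.01 in 384-well plates, at 30 µl per well or 55 µl for S. pneumoniae. OD595 was monitored every 30 min for 14 h and background-subtracted using the first reading. Fitness is the optical density on entering stationary phase divided by the robust mean of no-drug controls, with values capped at 1.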

[6] = system: S. aureus DSM 20231; assay: as above
Procedure, shortened: as §2

[7] = system: B. subtilis 168; assay: as above
Procedure, shortened: as §2

[8] = system: S. aureus Newman; assay: as above
Procedure, shortened: as §2
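Wherever Bliss interaction score (quartile over a dose matrix) is given: first quartile when negative (synergy) and third quartile when positive (antagonism).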
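Wherever fitness (endpoint OD595 vs no drug) is given: OD595 on entry to stationary phase over no-drug wells; at most 1.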

COc1c(N2C[C@@H]3CCCN[C@@H]3C2)c(F)cc2c(=O)c(C(=O)O)cn(C3CC3)c12 [Moxifloxacin] + C[n+]1ccc(-c2cc[n+](C)cc2)cc1 [Paraquat]
Conditions | Bliss interaction score
[1] | -0.0615
[2] | -0.0639
[3] | 0.0133
[4] | -0.0625

fitness, one replicate
Conditions | partner 1.25 µg/mL | partner 1.5 µg/mL | partner 2.5 µg/mL | partner 3 µg/mL | partner 5 µg/mL | partner 6 µg/mL
[5], first compound 0.0037 µg/mL | – | 0.906 | – | 0.857 | – | 0.896
[5], first compound 0.0075 µg/mL | – | 0.878 | – | 0.852 | – | 0.868
[5], first compound 0.015 µg/mL | – | 0.886 | – | 0.866 | – | 0.868
[6], first compound 0.06 µg/mL | 0.684 | – | 0.7 | – | 0.699 | –
[6], first compound 0.12 µg/mL | 0.456 | – | 0.456 | – | 0.451 | –

fitness
Conditions | partner 1.25 µg/mL | partner 1.5 µg/mL | partner 2.5 µg/mL | partner 3 µg/mL | partner 5 µg/mL | partner 6 µg/mL
[5], first compound 0.005 µg/mL | – | 0.979 | – | 0.994 | – | 0.969
[5], first compound 0.01 µg/mL | – | 0.966 | – | 0.957 | – | 0.939
[5], first compound 0.02 µg/mL | – | 0.947 | – | 0.927 | – | 0.893
[6], first compound 0.0075 µg/mL | 0.818 | – | 0.831 | – | 0.824 | –
[6], first compound 0.015 µg/mL | 0.748 | – | 0.712 | – | 0.774 | –
[6], first compound 0.03 µg/mL | 0.647 | – | 0.632 | – | 0.634 | –
[7], first compound 0.0312 µg/mL | 0.0599 | – | 0.0539 | – | 0.0449 | –
[7], first compound 0.0625 µg/mL | 0.044 | – | 0.0467 | – | 0.0504 | –
[7], first compound 0.125 µg/mL | 0.0395 | – | 0.0537 | – | 0.0512 | –
[7], first compound 2 µg/mL | 0.0316 | – | 0.0333 | – | 0.0436 | –
[7], first compound 4 µg/mL | 0.0442 | – | 0.039 | – | 0.0413 | –
[7], first compound 8 µg/mL | 0.0139 | – | 0.0174 | – | 0.0265 | –
[8], first compound 0.0075 µg/mL | 0.706 | – | 0.73 | – | 0.727 | –
[8], first compound 0.015 µg/mL | 0.583 | – | 0.565 | – | 0.554 | –
[8], first compound 0.03 µg/mL | 0.0423 | – | 0.0559 | – | 0.0929 | –

COc1c(N2C[C@@H]3CCCN[C@@H]3C2)c(F)cc2c(=O)c(C(=O)O)cn(C3CC3)c12 [Moxifloxacin] + Cc1cc(NS(=O)(=O)c2ccc(N)cc2)no1 [Sulfamethoxazol]
Conditions | Bliss interaction score
[1] | -0.0536
[2] | -0.0783
[3] | -0.0331
[4] | -0.071

one replicate
Conditions | fitness
[5], first compound 0.0037 µg/mL, partner 1 µg/mL | 0.897
[5], first compound 0.0037 µg/mL, partner 2 µg/mL | 0.856
[5], first compound 0.0037 µg/mL, partner 4 µg/mL | 0.797
[5], first compound 0.0075 µg/mL, partner 1 µg/mL | 0.869
[5], first compound 0.0075 µg/mL, partner 2 µg/mL | 0.857
[5], first compound 0.0075 µg/mL, partner 4 µg/mL | 0.797
[5], first compound 0.015 µg/mL, partner 1 µg/mL | 0.842
[5], first compound 0.015 µg/mL, partner 2 µg/mL | 0.828
[5], first compound 0.015 µg/mL, partner 4 µg/mL | 0.79
[6], first compound 0.06 µg/mL, partner 1 µg/mL | 0.669
[6], first compound 0.06 µg/mL, partner 2 µg/mL | 0.655
[6], first compound 0.06 µg/mL, partner 4 µg/mL | 0.655
[6], first compound 0.12 µg/mL, partner 1 µg/mL | 0.445
[6], first compound 0.12 µg/mL, partner 2 µg/mL | 0.44
[6], first compound 0.12 µg/mL, partner 4 µg/mL | 0.431
[7], first compound 0.0312 µg/mL, partner 0.5 µg/mL | 0.0261
[7], first compound 0.0625 µg/mL, partner 0.5 µg/mL | 0.034
[7], first compound 0.125 µg/mL, partner 0.5 µg/mL | 0.0283
[8], first compound 0.0075 µg/mL, partner 8 µg/mL | 0.934
[8], first compound 0.015 µg/mL, partner 8 µg/mL | 0.887
[8], first compound 0.03 µg/mL, partner 8 µg/mL | 0.784

fitness
Conditions | partner 1 µg/mL | partner 2 µg/mL | partner 4 µg/mL
[5], first compound 0.005 µg/mL | 0.944 | 0.969 | 0.958
[5], first compound 0.01 µg/mL | 0.949 | 0.955 | 0.987
[5], first compound 0.02 µg/mL | 0.894 | 0.912 | 0.926
[6], first compound 0.0075 µg/mL | 0.78 | 0.829 | 0.765
[6], first compound 0.015 µg/mL | 0.69 | 0.724 | 0.76
[6], first compound 0.03 µg/mL | 0.586 | 0.682 | 0.692
[7], first compound 0.0312 µg/mL | 0.0226 | 0.0442 | 0.0303
[7], first compound 0.0625 µg/mL | 0.0292 | 0.0328 | 0.0239
[7], first compound 0.125 µg/mL | 0.0176 | 0.0212 | 0.0185
[7], first compound 2 µg/mL | 0.0112 | 0.0253 | 0.0113
[7], first compound 4 µg/mL | 0.0152 | 0.0241 | 0.0125
[7], first compound 8 µg/mL | 0.0212 | 0.0227 | 0.0093
[8], first compound 0.0075 µg/mL | 0.776 | 0.795 | 0.749
